SMILES strings stand for the structures.

Test [1] has as its target NR2B-subtype NMDA receptors (Rattus norvegicus (Rat), UniProt P35439+Q00960). Put plainly: Radioligand binding assay (3H Ro 25-6981 competition, rat forebrain membranes). The conditions noted are these: 3H Ro 25-6981 (4 nM). As to the method: Radioligand Binding Assay.
Binding experiments to determine binding to NR2B-subtype NMDA receptors were performed on forebrains of 8-10 weeks old male Sprague Dawley rats (Harlan, Netherlands) using ^3H Ro 25-6981 (Mutel V; Buchy D; Klingelschmidt A; Messer J; Bleuel Z; Kemp J A; Richards J G. Journal of Neurochemistry, 1998, 70(5):2147-2155. Rats were decapitated without anesthesia using a Guillotine (approved by animal ethics committee) and the harvested brains were snap-frozen and stored at −80° C. for 3-6 months for membrane preparation.
For membrane preparation, rat forebrains were thawed on ice for 20 minutes in homogenization buffer composed of 50 mM KH2PO4 (pH adjusted to 7.4 with KOH), 1 mM EDTA, 0.005% Triton X 100 and protease inhibitor cocktail (Sigma Aldrich). Thawed brains were homogenized using a Dounce homogenizer and centrifuged at 48000×g for 20 min. The pellet was resuspended in cold buffer and homogenized again using a Dounce homogenizer. Subsequently, the homogenate was aliquoted, snap-frozen and stored at −80° C. for not more than 3-4 months.
To perform the competition binding assay, thawed membrane homogenate was added to each well of a 96-well plate (20 μg/well). […] The filter plates were dried at 50° C. for 20 mins, incubated with microscint 20 for 10 minutes and finally, the counts were read on TopCount (Perkin Elmer).

Test [2] deals with brain-resident NR2B-subtype receptors (Mus musculus (Mouse), UniProt P35438+Q01097). Put plainly: Ex vivo occupancy assay. It is filed as in vivo. Particulars: animals after dosing; no dose stated. As for the experimental part: 7-9 weeks old male CD-1 mice were dosed intravenously in a vehicle consisting of 10% dimethylacetamide, 40% PEG-400, 30% hydroxypropyl betacyclodextrin, and 30% water with experimental compounds and the forebrains were harvested 15 minutes post-dosing by decapitation. The brain samples were immediately snap-frozen and stored at −80° C. On the following day, the dosed brain samples were thawed on ice for 15-20 minutes followed by homogenization using Polytron for 10 seconds in cold homogenization buffer composed of 50 mM KH2PO4 (pH adjusted to 7.4 with KOH), 1 mM EDTA, 0.005% Triton X 100 and protease inhibitor cocktail (Sigma Aldrich). The crude homogenates were further homogenized using a Dounce homogenizer and the homogenized membrane aliquots from all animals were flash-frozen and stored at −80° C. until further use. The whole homogenization process was performed on ice. For determining occupancy, the membrane homogenates were first thawed on ice and then needle-homogenized using a 25 gauge needle. The homogenized membrane (6.4 mg/ml) was added to a 96-well plate followed by addition of ^3H Ro 25-6981 (6 nM). […] The filter plates were dried at 50° C. for 20 mins, incubated with microscint 20 for 10 minutes and read on TopCount (Perkin Elmer). […] Non-specific binding was determined using 10 μM Ro 25-6981 added to the wells containing membrane homogenates from vehicle-dosed animals. […]

Test [3] concerns mice. Put plainly: Mouse Forced Swim Test (mFST). It is filed as in vivo. Particulars: 1 mg/Kg i.v., 15 min before swim session. As to the method: Mouse Forced Swim Test (mFST).
Forced Swim Test (FST) is an animal model used to assess antidepressant compounds in preclinical studies. The FST was performed similar to the method of Porsolt et al. with modifications (Porsolt R D, Bertin A, Jalfre M. Behavioral despair in mice: a primary screening test for antidepressants. Arch Int Pharmacodyn Ther 1977; 229:327-36). In this paradigm, mice are forced to swim in an inescapable cylinder filled with water. Under these conditions, mice will initially try to escape and eventually develop immobility behavior; this behavior is interpreted as a passive stress-coping strategy or depression-like behavior. […] The duration of immobility was evaluated during the total 6 min of the test and expressed as duration (sec) of immobility. […] All testing sessions were recorded with a video camera (Sony Handicam, Model: DCR-HC38E; PAL) and scoring was done using the Forced Swim Scan, Version 2.0 software (Clever Systems Inc., Reston, Va., USA; see Hayashi E, Shimamura M, Kuratani K, Kinoshita M, Hara H. Automated experimental system capturing three behavioral components during murine forced swim test. Life Sci. 2011 Feb. 28; 88(9-10):411-7 and Yuan P, Tragon T, Xia M, Leclair C A, Skoumbourdis A P, Zheng W, Thomas C J, Huang R, Austin C P, Chen G, Guitart X. Phosphodiesterase 4 inhibitors enhance sexual pleasure-seeking activity in rodents. […]

Chain of NR2B-subtype NMDA receptors (Q00960 27-1482, other chains not shown): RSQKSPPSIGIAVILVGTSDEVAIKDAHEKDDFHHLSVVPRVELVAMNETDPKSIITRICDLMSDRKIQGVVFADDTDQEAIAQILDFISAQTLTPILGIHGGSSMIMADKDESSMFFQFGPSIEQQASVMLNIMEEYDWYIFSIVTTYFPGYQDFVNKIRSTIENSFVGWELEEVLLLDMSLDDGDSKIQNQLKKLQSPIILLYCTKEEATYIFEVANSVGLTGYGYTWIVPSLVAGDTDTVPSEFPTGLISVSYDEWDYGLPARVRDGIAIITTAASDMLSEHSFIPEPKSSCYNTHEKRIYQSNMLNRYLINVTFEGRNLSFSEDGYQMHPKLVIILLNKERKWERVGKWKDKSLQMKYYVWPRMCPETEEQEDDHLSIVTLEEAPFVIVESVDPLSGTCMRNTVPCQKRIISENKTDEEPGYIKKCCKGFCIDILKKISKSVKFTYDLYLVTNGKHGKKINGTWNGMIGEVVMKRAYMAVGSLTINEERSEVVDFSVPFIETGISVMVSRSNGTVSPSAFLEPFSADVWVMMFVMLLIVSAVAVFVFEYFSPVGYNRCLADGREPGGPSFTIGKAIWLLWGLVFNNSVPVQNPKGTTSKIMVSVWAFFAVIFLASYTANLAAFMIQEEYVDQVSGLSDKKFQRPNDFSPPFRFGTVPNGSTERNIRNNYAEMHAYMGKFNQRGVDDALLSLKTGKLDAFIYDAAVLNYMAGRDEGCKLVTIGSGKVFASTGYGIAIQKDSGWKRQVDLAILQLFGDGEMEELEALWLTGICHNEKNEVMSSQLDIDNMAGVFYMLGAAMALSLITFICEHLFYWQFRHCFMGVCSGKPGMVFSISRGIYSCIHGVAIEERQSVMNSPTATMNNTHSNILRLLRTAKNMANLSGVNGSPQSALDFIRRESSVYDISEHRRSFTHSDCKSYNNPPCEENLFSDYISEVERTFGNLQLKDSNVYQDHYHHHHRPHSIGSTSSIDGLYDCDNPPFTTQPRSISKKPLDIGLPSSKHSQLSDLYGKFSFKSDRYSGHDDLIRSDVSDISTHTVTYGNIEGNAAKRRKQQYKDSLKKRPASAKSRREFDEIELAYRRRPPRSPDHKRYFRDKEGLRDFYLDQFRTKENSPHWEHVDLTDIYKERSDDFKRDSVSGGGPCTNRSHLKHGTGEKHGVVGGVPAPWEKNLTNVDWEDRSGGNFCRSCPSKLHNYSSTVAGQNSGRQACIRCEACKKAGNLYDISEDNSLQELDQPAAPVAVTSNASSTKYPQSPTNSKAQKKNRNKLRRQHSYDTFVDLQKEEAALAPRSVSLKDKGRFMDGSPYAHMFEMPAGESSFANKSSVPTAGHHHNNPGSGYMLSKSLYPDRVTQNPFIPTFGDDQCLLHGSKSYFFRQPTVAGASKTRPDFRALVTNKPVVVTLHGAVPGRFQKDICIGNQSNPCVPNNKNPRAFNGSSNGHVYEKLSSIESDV
Chain of brain-resident NR2B-subtype receptors (Q01097 27-1482, other chains not shown): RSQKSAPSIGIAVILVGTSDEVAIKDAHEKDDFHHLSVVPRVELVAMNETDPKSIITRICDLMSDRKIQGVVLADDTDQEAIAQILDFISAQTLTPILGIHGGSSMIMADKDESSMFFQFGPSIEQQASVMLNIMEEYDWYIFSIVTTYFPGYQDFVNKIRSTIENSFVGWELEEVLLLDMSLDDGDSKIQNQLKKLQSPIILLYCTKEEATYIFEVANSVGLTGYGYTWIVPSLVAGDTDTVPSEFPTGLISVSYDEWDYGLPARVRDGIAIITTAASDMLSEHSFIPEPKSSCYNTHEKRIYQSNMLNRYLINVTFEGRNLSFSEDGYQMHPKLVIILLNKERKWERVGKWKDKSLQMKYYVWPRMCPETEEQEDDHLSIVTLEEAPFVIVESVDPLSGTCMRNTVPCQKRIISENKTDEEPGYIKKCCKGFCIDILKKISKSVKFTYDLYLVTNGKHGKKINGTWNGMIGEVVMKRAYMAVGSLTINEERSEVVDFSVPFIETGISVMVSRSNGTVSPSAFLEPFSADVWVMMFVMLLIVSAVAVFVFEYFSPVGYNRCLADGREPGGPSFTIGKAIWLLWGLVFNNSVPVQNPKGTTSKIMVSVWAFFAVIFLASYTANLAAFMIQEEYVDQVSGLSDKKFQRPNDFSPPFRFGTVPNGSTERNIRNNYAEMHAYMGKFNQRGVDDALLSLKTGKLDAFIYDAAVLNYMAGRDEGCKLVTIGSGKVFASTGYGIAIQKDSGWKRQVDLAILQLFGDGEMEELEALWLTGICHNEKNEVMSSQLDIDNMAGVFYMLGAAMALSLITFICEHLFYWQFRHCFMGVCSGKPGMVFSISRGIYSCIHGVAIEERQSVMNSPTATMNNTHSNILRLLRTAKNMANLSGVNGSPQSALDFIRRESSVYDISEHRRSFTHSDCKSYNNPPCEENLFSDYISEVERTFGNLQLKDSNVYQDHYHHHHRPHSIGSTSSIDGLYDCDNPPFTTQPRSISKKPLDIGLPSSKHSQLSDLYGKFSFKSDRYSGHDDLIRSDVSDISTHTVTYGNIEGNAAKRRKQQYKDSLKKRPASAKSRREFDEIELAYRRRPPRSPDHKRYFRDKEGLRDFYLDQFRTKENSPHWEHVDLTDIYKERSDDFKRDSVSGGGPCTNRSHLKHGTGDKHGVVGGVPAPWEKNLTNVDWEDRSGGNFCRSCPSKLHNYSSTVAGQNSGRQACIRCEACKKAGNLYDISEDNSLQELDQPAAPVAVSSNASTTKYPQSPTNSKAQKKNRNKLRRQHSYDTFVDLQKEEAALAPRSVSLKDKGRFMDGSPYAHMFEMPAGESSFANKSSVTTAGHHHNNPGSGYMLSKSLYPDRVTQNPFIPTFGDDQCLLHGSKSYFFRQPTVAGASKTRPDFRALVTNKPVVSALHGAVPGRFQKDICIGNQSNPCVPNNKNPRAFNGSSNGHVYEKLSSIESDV

Turning to `O=C1C(N2CCC(c3ccc(O)cn3)CC2)CON1Cc1ccc(F)cc1` (racemic) [Example 3, 2-(4-fluorobenzyl)-4-(4-(5-hydroxypyridin-2-yl)piperidin-1-yl)isoxazolidin-3-one], the affinity in test [1], expressed as Ki, was 15.1 nM.

`Cc1ccc(CN2OCC(N3CCC(c4ccc(O)cc4)CC3)C2=O)cc1` (single isomer, unassigned) [2,P-2, 4-(4-(4-hydroxyphenyl)piperidin-1-yl)-2-(4-methylbenzyl)isoxazolidin-3-one]: the “occupancy of brain-resident NR2B-subtype receptors (in words)” value in test [2] is “occupies brain-resident NR2B-subtype receptors”.

As for `Cc1ccc(CN2OCCC(N3CCC(c4ccc(O)cc4)CC3)C2=O)cc1` (racemic) [Example 4, 4-(4-(4-hydroxyphenyl)piperidin-1-yl)-2-(4-methylbenzyl)-1,2-oxazinan-3-one], the affinity in test [1], expressed as Ki, was 5.49 nM.

With `Cc1ccc(CN2OCC(N3CCN(c4ccc(O)cn4)CC3)C2=O)cc1` (single isomer, unassigned) [10,P-1, 4-(4-(5-hydroxypyridin-2-yl)piperazin-1-yl)-2-(4-methylbenzyl)isoxazolidin-3-one], in test [3], the immobility time result was “statistically significant decrease in immobility time”.

The record behind these values is patent US10954225B2, “Selective NR2B antagonists” (Bristol-Myers Squibb Company, priority 2015, dated 2021).
